Nine compounds from ChEMBL document CHEMBL3867459, “A cell-based approach to characterize antimicrobial compounds through kinetic dose response” (Bioorg Med Chem, 2016) can be followed below.

The subject of series [1] is Escherichia coli. As to the kind of experiment: Antibacterial activity against Escherichia coli K-12 BW25113 measured every 10 mins after 24 hrs in absence of biotin. It is filed as functional.
The subject of series [2] is Escherichia coli. As to the kind of experiment: Antibacterial activity against Escherichia coli K-12 BW25113 measured every 10 mins after 24 hrs in presence of biotin. It is filed as functional.
Series [3] has as its system Escherichia coli. As to the kind of experiment: Inhibition of Escherichia coli His-tagged bioA at 1 uM using KAPA as substrate after 20 mins in presence of SAM relative to control.
Series [4] in a line: Chemical stability assessed as compound decomposition in double distilled water at 40 ug/ml at pH 7.4 after 24 hrs by HPLC analysis. The format is physicochemical. The note with it: buffer, pH 7.4, 24 h.

As a reminder, the MIC is the lowest concentration found to suppress growth. The term inhibition denotes the share of the control response that was lost under treatment.

Each structure is given as a SMILES string. Values after ≈ are worked out from the molar mass of the structure shown. Where only a bound is given, the exact number is not on record here.

On to `Cc1ccccc1SCC(=O)NN`, for which the MIC was 16 µg/mL (≈ 81.5 µM) with Escherichia coli [1] and more than 256 µg/mL with Escherichia coli [2]. Further, the inhibition with Escherichia coli [3] worked out at 81%.
The corresponding values for `NNC(=O)CS` are 256 µg/mL (≈ 2410 µM), 256 µg/mL and 20%.
The corresponding values for `CSCC(=O)NN` are 64 µg/mL (≈ 533 µM), 64 µg/mL and 50%.
Take `S=C1SCN(Cc2cccnc2)CN1Cc1cccnc1`: the Stability entry in series [4] is “Unstable”.
In the case of `O=C1C=CC(=O)N1Cc1cccs1`, the Stability entry in series [4] is on record as “Unstable”.
In the case of `CC(=O)NN`, the minimum inhibitory concentration (MIC) against Escherichia coli [1] was 128 µg/mL (≈ 1730 µM); in the series with Escherichia coli [2] it was 128 µg/mL. The inhibition with Escherichia coli [3] amounted to 7%.
With `NNC(=O)CSc1ccccc1[N+](=O)[O-]`, the minimum inhibitory concentration (MIC) was 8 µg/mL (≈ 35.2 µM) against Escherichia coli [1] and more than 256 µg/mL with Escherichia coli [2]. Further, the inhibition in the series with Escherichia coli [3] turned out to be 100%.
As for `O=[N+]([O-])/C=C/c1cccc(F)c1`, the Stability result in series [4] is reported as “Unstable”.
With `NNC(=O)CSc1ccccc1Cl`, the minimum inhibitory concentration (MIC) against Escherichia coli [1] was 16 µg/mL (≈ 73.8 µM); with Escherichia coli [2] it was more than 256 µg/mL. The inhibition in the series on Escherichia coli [3] came to 63%.
